From patent US5000959A, “Liposome composition and production thereof” (Takeda Chemical Industries, Ltd., priority 1989, dated 1991)

Assay: Phase transition temperature (differential thermal analysis)
Format: physicochemical
Settings: single phospholipid
Protocol: Phase transition temperature was determined by differential thermal analysis.

Row | Substance | phase transition temperature (found value) of phospholipid
1 | palmitoylstearoylphosphitadylcholine [PSPC] | 47.4 °C
2 | steroylpalmitoylphosphitdylcholine [SPPC] | 44.0 °C
